Results published in paper doi:10.1101/2024.04.19.590329, “Quantifying and controlling the proteolytic degradation of cell adhesion peptides” (bioRxiv, 2024).
Non-standard residues stand in square brackets, D forms with d. Residues, ends and D or L forms follow the SMILES beside them. βAla = NCCC(=O)O

Legend:
[1] = Degradation of individual glycine-terminated peptide at 19.5 to 5,000 μM (cell type not stated); type: in vitro ADME; details: individual peptide with glycine at the terminus, initial concentration 5,000 μM, LCMS, cell type not stated (Fig. 4A)
Protocol: The column temperature was a constant 29 °C. The Mass Spectrometer was operated in positive ion mode.
Data Analysis was performed on Xcalibur Software (Thermo Scientific). […] Calculated data was visualized using RStudio.

[2] = tested on: cells in gels, all cell types; experiment: Viability of cells in gels (alamarBlue); type: cell-based, human; details: cells in PEG gels, days 0, 3 and 7, across all cell types
Protocol: Cells were cultured in gels as described. A working solution was made by diluting the alamarBlue dye (Y00–100, Thermo Scientific) (1:10) with the same media cells were cultured in. The media the cells were in was replaced with one ml of working solution. One ml of working solution was also placed into 3 blank wells. The cells were then placed in the incubator 36°C, 5% CO2 for 3 hours. After 3 hours, 100 μL of the solution was sampled and placed into a 96 well plate, and fluorescence intensity was measured using a Tecan plate reader using 560Ex/590Em nm filter settings, reading from the bottom of the plate. Immediately after measurement, the alamar blue working solution was washed three times with appropriate media for each cell type being measured and placed back in the incubator. The same cells were used for each measurement during days 0, 3, and 7.

Protocol for hUVECs: Passage 2 of human umbilical vein endothelial cells (hUVECs) (Life Technology) were seeded into 24 well plates at a seeding density of 150,000 cells per well in 1ml of expansion media (Lifeline Cell Technology, LM-0002) containing ascorbic acid, hydrocortisone, FBS, L-Glutamine, rh-EGF, heparin, and EnGS-US (All supplements LifeFactors, LS-1122). After 24 hour the media was changed. Peptide libraries, each containing 19 peptides and the non-proteolytically degradable βFβAβAβAβAβA-NH2 internal standard, were added to the cell media for a final concentration of 37 μM per peptide. Each library was tested in triplicate per per cell type per study. 40 μl samples were collected from the media at hours 0, 1, 4, 8, 24, and 48. In-between timepoints samples were frozen −80°C. […]
Data Analysis was performed on Xcalibur Software (Thermo Scientific). Peptides were identified automatically using the Thermo Xcalibur Processing Setup window where the mass (m/z) ±0.5 AMU and expected retention times for each quantified peptide were inputted. This was later used to isolate individual peptide species from the total ion count (TIC) trace using the Thermo Xcalibur Quan Setup window, where the area under the curve was calculated and visually inspected for accuracy. […] Relative amounts of a peptide of peptide were then calculated by normalized all values to their corresponding time zero area ratio.

CC(C)[C@H](NC(=O)[C@H](Cc1ccccc1)NC(=O)[C@H](CCC(=O)O)NC(=O)CNC(=O)[C@H](CCCNC(=N)N)NC(=O)CN)C(=O)NCCC(N)=O [amine-terminated RGEFV peptides] (H-GRGEFV[βAla]-NH2)
peptide remaining after 48 hours [1]: 5%

LIAANK
degradation in words (hUVECs): rapidly degraded

cyclic GRGDSK(N3) (head to tail) [cRGD, Cyclic RGD peptide, positive control, has no terminus, tethered to PEG-DBCO hydrogel by azide]
viability within gels, in words [2]: greatest viability
